Measurements as given in patent US11400089B2, “Multikinase inhibitors and uses in reproductive and digestive tract fibrosis” (AIVIVA BIOPHARMA, INC., priority 2017, dated 2022).

Legend:
[1] = test system: testosterone and phenylephrine induced benign prostate hyperplasia; experiment: testosterone and phenylephrine induced benign prostate hyperplasia in rats (Example 3); type: in vivo, Male Wistar rats; settings: for inhibition of cellular proliferation in testosterone/phenylephrine induced benign prostate hyperplasia model: 1% intra-prostate days 1 and 18, rat; for epithelial (glandular) hyperplasia score, dorsolateral prostate, representative image / epithelial (glandular) hyperplasia score, ventral prostate, representative image: TE+PE induced rats, intra-prostate 0.4 ml days 1 and 18, day 32, induced vehicle score=4; for epithelial (glandular) hyperplasia score, dorsolateral prostate, representative image: grade 0 (not present) to 5 (severe), FIG. 4; for epithelial (glandular) hyperplasia score, ventral prostate, representative image: grade 0 to 5, FIG. 5
Method: This study was conducted to determine the effects of multikinase inhibitors and vehicle on testosterone and phenylephrine induced benign prostate hyperplasia in rats. Male Wistar rats were induced with testosterone (2 mg/kg) plus phenylephrine (5 mg/kg) administered daily by subcutaneous injection on days 5 through 32. Vehicle or test compounds (all 1% w/v), nintedanib, sunitinib or lenvatinib and doxazosin mesylate, were administered by intra-prostate injection (0.4 ml) in dorsolateral and ventral lobes on days 1 and 18. Animals were euthanized on day 32.
At necropsy, the ventral and dorsolateral lobes of the prostate were separated and then cut into halves. The left halves were fixed in 10% neutral buffered formalin, sectioned, and stained with Hematoxylin and Eosin (H&E). Histological changes in these sections were scored. Epithelial hyperplasia was recognized as an increase in epithelial cells within normal-appearing gland profiles, primarily reflected by stratification of epithelial cells and increased presence of epithelial tufting and papillary projections. A severity grade of 0 (not present) through 5 (severe) was assigned to each sample.

[2] = test system: suture induced ocular fibrosis; experiment: suture induced ocular fibrosis model in rabbits (Example 4); type: in vivo; settings: for areas of neovascularization on the corneal surface: 0.3% topical 35 μL/eye three times daily for 10 days, FIG. 8; for fibroplasia and/or collagen density (histological staining) / alpha SMA staining (immunohistochemical analysis): 0.3% topical three times daily for 10 days, FIG. 9; for fibroplasia and/or collagen density (histological staining): Day 11; for alpha SMA staining (immunohistochemical analysis): relative to vehicle
Method: A study was conducted to determine the potential beneficial effects of topical administration of test compounds and vehicle in a suture induced ocular fibrosis model in rabbits. Sutures were placed intrastromally, under a microscope, in the cornea of rabbits. In each eye, one 9.0 silk suture was placed, in a vertical position, temporal to the center of the cornea and a second suture was placed nasal to the corneal center. Each suture had two stromal incursions approximately 2 mm from the limbus. Test compounds having a certain spectrum of multikinase inhibition activities or vehicle were topically instilled (35 μL/eye) in the eyes three times daily for 10 days following the day of surgery. The treatment groups include vehicle, axitinib (0.3%), nintedanib (0.3%), pirfenidone (1%), riociguat (0.3%), sorafenib (0.3%) and lenvatinib (0.3%). Six left eyes were used per treatment group.
During the in-life phase, gross ocular observations of very slight to moderate conjunctival congestion and swelling were similar among groups, including the vehicle control. The animals were sacrificed on Day 11 and eyes enucleated and dissected for histopathological evaluation.

[3] = test system: full-thickness dermal wounds; experiment: full-thickness dermal wounds in rabbit ear, histopathology (Example 5); type: in vivo, New Zealand White rabbits; design: average total score of test wounds lower than untreated/control wounds by / Neovascularization (histopathology score, treated mean) / Fibrosis/Collagen (histopathology score, treated mean) / Reepithelialization (histopathology score, treated mean) / Total Score (histopathology, treated mean): scale not given here; settings: for Fibrosis/Collagen (histopathology score, treated mean) / Neovascularization (histopathology score, treated mean) / Reepithelialization (histopathology score, treated mean) / Total Score (histopathology, treated mean): 1% intradermal dosing days 15 and 29, Day 42; for average total score of test wounds lower than untreated/control wounds by: difference treated vs control
Method: Test compounds were examined in full-thickness dermal wounds in rabbits. Seven male New Zealand White rabbits, ranging in body weight from 3.03 to 3.40 kg were used in this study. Four wounds were placed on the ventral surface of both ears using an 8 mm skin punch biopsy. Axitinib (1.0%), nintedanib (1.0%), lenvatinib (1.0%), sorafenib (1.0%) and sunitinib (1.0%) were administered by intradermal or intralesional injection on days 15 and 29 following surgery. Animals were euthanized on Day 42 and trauma sites were harvested and divided in half. One half was preserved in formalin for histological examination and the other half frozen for TGF beta analysis. Tissue H&E staining was evaluated semi-quantitatively for inflammation and neovascularization. Tissue fibrosis and collagen organization were evaluated by Mason's trichrome staining. Scores for four intradermal sites receiving test articles were averaged for each rabbit. Most scar tissues were composed of neovascularization, fibroblast hyperplasia, collagen disorganization and re-epithelialization.

[4] = test system: TGF beta mRNA expression; experiment: TGF beta mRNA expression in rabbit dermal wound model (Example 5); type: in vivo, New Zealand White rabbits; settings: 1% intradermal days 15 and 29; Day 42; FIG. 10
Method: Test compounds were examined in full-thickness dermal wounds in rabbits. Seven male New Zealand White rabbits, ranging in body weight from 3.03 to 3.40 kg were used in this study. Four wounds were placed on the ventral surface of both ears using an 8 mm skin punch biopsy. Axitinib (1.0%), nintedanib (1.0%), lenvatinib (1.0%), sorafenib (1.0%) and sunitinib (1.0%) were administered by intradermal or intralesional injection on days 15 and 29 following surgery. Animals were euthanized on Day 42 and trauma sites were harvested and divided in half. One half was preserved in formalin for histological examination and the other half frozen for TGF beta analysis.
TGF beta mRNA expression in treated trauma samples was compared to expression in untreated samples. In general, TGF beta expression in treated samples was lower relative to untreated trauma samples.

[5] = test system: TGF beta 1 protein levels; experiment: TGF beta 1 protein level (ELISA) in pig linear incision wound model (Example 6); type: in vivo, Gottingen minipigs; settings: 16 mg per wound site intradermal; Days 4, 7 and 9; FIG. 11
Method: Full-thickness linear incision wounds were created in Gottingen minipigs on Day 1. 10 wounds approximately 3 cm in length and spaced at least 5 cm apart were created on the dorsal surface of the animals, perpendicular to the spine. Test agents included nintedanib (2%), lenvatinib (2%), sorafenib (1%), axitinib (2%) and vehicle control. Test agents were administered by intradermal injection immediately after wound creation. The dose of nintedanib, lenvatinib, sorafenib, or axitinib was 16 mg per wound site. Three minipigs were dosed in a similar manner. One minipig was sacrificed on Day 4, one on Day 7, and one on Day 9.
At the time of sacrifice, two dermal punch biopsies (4 mm) from each side of the wound sites were collected. Two biopsies were flash frozen in liquid nitrogen and stored at −80° C. prior to processing by protein extraction and ELISA (enzyme-linked immunosorbent assay) analysis. TGF beta protein levels were measured on Days 4, 7 and 9.

[6] = test system: LL37-induced inflammation; experiment: intradermal LL37 injection-induced inflammation model in mice, histopathology (Example 7); type: in vivo; settings: single intradermal injection 1.6 mg, FIG. 13
Method: (§1) In our study, mice were injected subcutaneously with 40 μL of LL-37 (3.3 mg/mL) to induce inflammatory reactions. Immediately following the LL-37 injection, axitinib, nintedanib, and lenvatinib were individually administered as a single intradermal injection (1.6 mg). LL-37 injection was repeated every 12 hours for a total of 4 injections. Endotoxin-free water and dexamethasone (3 mg/kg by intraperitoneal injection, twice), respectively, were used as negative and positive control groups.
At 48 hours after the initial LL-37 injection, the dorsal skin was photographed, and the severity of skin lesions were scored for redness and measured for areas of involvement.
The tissue samples were analyzed for inflammation characteristics. Histopathology endpoints included inflammation, and CD4+ and CD8+ T-lymphocyte immunostaining. For inflammation scores, tissues were examined histologically and scored for inflammatory cell infiltrate.

[7] = test system: TGFb-1 mRNA expression; experiment: TGFb1 mRNA expression in LL37-induced mice (Example 7); type: in vivo; settings: single intradermal injection 1.6 mg, FIG. 12
Method: as §1
The TGFb1 mRNA expression in mice induced with LL37 and treated with lenvatinib was 79% of that challenged with LL37 alone (i.e., without treatment).

[8] = 1% intradermal, rabbit ear wound

| SMILES | inhibition of cellular proliferation in testosterone/phenylephrine induced benign prostate hyperplasia model [1] | epithelial (glandular) hyperplasia score, dorsolateral prostate, representative image [1] | epithelial (glandular) hyperplasia score, ventral prostate, representative image [1] | areas of neovascularization on the corneal surface [2] | fibroplasia and/or collagen density (histological staining) [2] | alpha SMA staining (immunohistochemical analysis) [2] | Fibrosis/Collagen (histopathology score, treated mean) ([3]; rabbit ear wound) | Neovascularization (histopathology score, treated mean) ([3]; rabbit ear wound) | Reepithelialization (histopathology score, treated mean) ([3]; rabbit ear wound) | Total Score (histopathology, treated mean) ([3]; rabbit ear wound) | average total score of test wounds lower than untreated/control wounds by ([3]; 1% intradermal) | angiogenesis and fibrosis at treated trauma sites (histopathology summary) [3, 8] | fibrosis compared with control wound sites [3, 8] | neovascularization compared with untreated wounds [3, 8] | scar formation overall compared with control sites [3, 8] | mean folds of TGF beta mRNA expression vs untreated trauma samples [4] | TGF beta 1 protein levels in wound [5] | inflammation scores (inflammatory cell infiltrate) [6] | TGFb1 mRNA expression relative to LL37 alone (without treatment) [7] [%] | TGFb-1 mRNA expression among all treatment groups [7] |
| --- | --- | --- | --- | --- | --- | --- | --- | --- | --- | --- | --- | --- | --- | --- | --- | --- | --- | --- | --- | --- |
| COC(=O)c1ccc2c(c1)NC(=O)/C2=C(\Nc1ccc(N(C)C(=O)CN2CCN(C)CC2)cc1)c1ccccc1 [nintedanib] | effective inhibitors of cellular proliferation | 3 | 3 | efficacious in reducing the areas of neovascularization | significantly reduced fibroplasia and/or collagen density | significantly reduced alpha SMA staining | 3 | 1 | 0.5 | 4.5 | 1.5 | decreased angiogenesis and fibrosis | about the same fibrosis as untreated wounds | much less neovascularization | less scar formation compared with the control sites | lower than the expression level in untreated trauma samples | time-dependent inhibition of TGF beta 1 protein levels | prominent reductions in the scores of inflammation |  |  |
| COc1cc2nccc(Oc3ccc(NC(=O)NC4CC4)c(Cl)c3)c2cc1C(N)=O [lenvatinib] | effective inhibitors of cellular proliferation | 2 | 3 | efficacious in reducing the areas of neovascularization | significantly reduced fibroplasia and/or collagen density | significantly reduced alpha SMA staining | 2.5 | 2 | 0 | 4.5 | 0.5 | decreased angiogenesis and fibrosis | decreased fibrosis compared to control wound sites |  |  | lower than the expression level in untreated trauma samples | time-dependent inhibition of TGF beta 1 protein levels | prominent reductions in the scores of inflammation | 79 | lowest TGFb-1 mRNA expression |
